test system: HCI-001 (organoid from a triple-negative breast cancer xenograft); assay: CTG-3D luminescence at 96 h relative to day-0 seeding control (ratio to day 0); higher = more growth / less cytotoxicity; PDxO 3D drug screen, 96 h, CTG-3D normalised to day-0 seeding control.; settings: 12.5 pM; days in culture: 346

| SMILES | CTG-3D luminescence at 96 h |
| --- | --- |
| NC(=O)c1cccc2cn(-c3ccc([C@@H]4CCCNC4)cc3)nc12 [niraparib] | 1.69 |
| Cc1cc(Nc2ncnc3ccc(NC4=NC(C)(C)CO4)cc23)ccc1Oc1ccn2ncnc2c1 [tucatinib] | 1.47 |
| CCN(c1cc(C#CCN2CCOCC2)cc(C(=O)NCc2c(C)cc(C)[nH]c2=O)c1C)[C@H]1CC[C@H](N(C)CCOC)CC1 | 1.71 |

same assay, conditions: 12.5 pM; days in culture: 364

| SMILES | CTG-3D luminescence at 96 h |
| --- | --- |
| NC1(C(=O)N[C@@H](CCO)c2ccc(Cl)cc2)CCN(c2nc[nH]c3nccc2-3)CC1 [capivasertib] | 1.6 |
| CC(C)n1nc(-c2ccc3oc(N)nc3c2)c2c(N)ncnc21 [sapanisertib] | 1.44 |
| O=C(c1ccc(F)c(F)c1Nc1ccc(I)cc1F)N1CC(O)([C@@H]2CCCCN2)C1 [cobimetinib] | 1.35 |
| C[C@H](NC(=O)CCC(F)(F)F)C(=O)N[C@@H]1C(=O)N(CCO)c2ncccc2-c2ccccc21 [crenigacestat] | 1.4 |
| Cc1cc(Nc2ncc(Cl)c(Nc3ccccc3S(=O)(=O)C(C)C)n2)c(OC(C)C)cc1C1CCNCC1 [ceritinib] | 1.52 |
| CS(=O)(=O)c1ccc(C(=O)Nc2ccc(Cl)c(-c3ccccn3)c2)c(Cl)c1 [vismodegib] | 1.66 |
| NC(=O)c1cccc2cn(-c3ccc([C@@H]4CCCNC4)cc3)nc12 [niraparib] | 1.81 |
| Cc1cc(Nc2ncnc3ccc(NC4=NC(C)(C)CO4)cc23)ccc1Oc1ccn2ncnc2c1 [tucatinib] | 1.49 |
| CCN(c1cc(C#CCN2CCOCC2)cc(C(=O)NCc2c(C)cc(C)[nH]c2=O)c1C)[C@H]1CC[C@H](N(C)CCOC)CC1 | 1.74 |

same assay, conditions: 0.00025 µM; days in culture: 240

| SMILES | CTG-3D luminescence at 96 h |
| --- | --- |
| NC1(C(=O)N[C@@H](CCO)c2ccc(Cl)cc2)CCN(c2nc[nH]c3nccc2-3)CC1 [capivasertib] | 0.986 |
| CC(C)n1nc(-c2ccc3oc(N)nc3c2)c2c(N)ncnc21 [sapanisertib] | 0.951 |
| O=C(c1ccc(F)c(F)c1Nc1ccc(I)cc1F)N1CC(O)([C@@H]2CCCCN2)C1 [cobimetinib] | 1.08 |
| C[C@H](NC(=O)CCC(F)(F)F)C(=O)N[C@@H]1C(=O)N(CCO)c2ncccc2-c2ccccc21 [crenigacestat] | 1.04 |
| Cc1cc(Nc2ncc(Cl)c(Nc3ccccc3S(=O)(=O)C(C)C)n2)c(OC(C)C)cc1C1CCNCC1 [ceritinib] | 1.14 |
| CS(=O)(=O)c1ccc(C(=O)Nc2ccc(Cl)c(-c3ccccn3)c2)c(Cl)c1 [vismodegib] | 1.26 |
| NC(=O)c1cccc2cn(-c3ccc([C@@H]4CCCNC4)cc3)nc12 [niraparib] | 0.913 |
| Cc1cc(Nc2ncnc3ccc(NC4=NC(C)(C)CO4)cc23)ccc1Oc1ccn2ncnc2c1 [tucatinib] | 0.88 |
| CCN(c1cc(C#CCN2CCOCC2)cc(C(=O)NCc2c(C)cc(C)[nH]c2=O)c1C)[C@H]1CC[C@H](N(C)CCOC)CC1 | 1.2 |

same assay, conditions: 0.00025 µM; days in culture: 260

| SMILES | CTG-3D luminescence at 96 h |
| --- | --- |
| NC1(C(=O)N[C@@H](CCO)c2ccc(Cl)cc2)CCN(c2nc[nH]c3nccc2-3)CC1 [capivasertib] | 1.47 |
| CC(C)n1nc(-c2ccc3oc(N)nc3c2)c2c(N)ncnc21 [sapanisertib] | 1.29 |
| O=C(c1ccc(F)c(F)c1Nc1ccc(I)cc1F)N1CC(O)([C@@H]2CCCCN2)C1 [cobimetinib] | 1.15 |
| C[C@H](NC(=O)CCC(F)(F)F)C(=O)N[C@@H]1C(=O)N(CCO)c2ncccc2-c2ccccc21 [crenigacestat] | 0.875 |
| Cc1cc(Nc2ncc(Cl)c(Nc3ccccc3S(=O)(=O)C(C)C)n2)c(OC(C)C)cc1C1CCNCC1 [ceritinib] | 1.05 |
| CS(=O)(=O)c1ccc(C(=O)Nc2ccc(Cl)c(-c3ccccn3)c2)c(Cl)c1 [vismodegib] | 1.08 |
| NC(=O)c1cccc2cn(-c3ccc([C@@H]4CCCNC4)cc3)nc12 [niraparib] | 1.11 |
| Cc1cc(Nc2ncnc3ccc(NC4=NC(C)(C)CO4)cc23)ccc1Oc1ccn2ncnc2c1 [tucatinib] | 0.988 |
| CCN(c1cc(C#CCN2CCOCC2)cc(C(=O)NCc2c(C)cc(C)[nH]c2=O)c1C)[C@H]1CC[C@H](N(C)CCOC)CC1 | 1.19 |

same assay, conditions: 0.00025 µM; days in culture: 269

| SMILES | CTG-3D luminescence at 96 h |
| --- | --- |
| NC1(C(=O)N[C@@H](CCO)c2ccc(Cl)cc2)CCN(c2nc[nH]c3nccc2-3)CC1 [capivasertib] | 1.5 |
| CC(C)n1nc(-c2ccc3oc(N)nc3c2)c2c(N)ncnc21 [sapanisertib] | 1.79 |
| O=C(c1ccc(F)c(F)c1Nc1ccc(I)cc1F)N1CC(O)([C@@H]2CCCCN2)C1 [cobimetinib] | 1.58 |
| C[C@H](NC(=O)CCC(F)(F)F)C(=O)N[C@@H]1C(=O)N(CCO)c2ncccc2-c2ccccc21 [crenigacestat] | 1.6 |
| Cc1cc(Nc2ncc(Cl)c(Nc3ccccc3S(=O)(=O)C(C)C)n2)c(OC(C)C)cc1C1CCNCC1 [ceritinib] | 1.77 |
| CS(=O)(=O)c1ccc(C(=O)Nc2ccc(Cl)c(-c3ccccn3)c2)c(Cl)c1 [vismodegib] | 1.89 |
| NC(=O)c1cccc2cn(-c3ccc([C@@H]4CCCNC4)cc3)nc12 [niraparib] | 1.93 |
| Cc1cc(Nc2ncnc3ccc(NC4=NC(C)(C)CO4)cc23)ccc1Oc1ccn2ncnc2c1 [tucatinib] | 1.49 |
| CCN(c1cc(C#CCN2CCOCC2)cc(C(=O)NCc2c(C)cc(C)[nH]c2=O)c1C)[C@H]1CC[C@H](N(C)CCOC)CC1 | 1.57 |

same assay, conditions: 0.00025 µM; days in culture: 327

| SMILES | CTG-3D luminescence at 96 h |
| --- | --- |
| NC1(C(=O)N[C@@H](CCO)c2ccc(Cl)cc2)CCN(c2nc[nH]c3nccc2-3)CC1 [capivasertib] | 1.3 |
| CC(C)n1nc(-c2ccc3oc(N)nc3c2)c2c(N)ncnc21 [sapanisertib] | 0.761 |
| O=C(c1ccc(F)c(F)c1Nc1ccc(I)cc1F)N1CC(O)([C@@H]2CCCCN2)C1 [cobimetinib] | 1.44 |
| C[C@H](NC(=O)CCC(F)(F)F)C(=O)N[C@@H]1C(=O)N(CCO)c2ncccc2-c2ccccc21 [crenigacestat] | 1.4 |
| Cc1cc(Nc2ncc(Cl)c(Nc3ccccc3S(=O)(=O)C(C)C)n2)c(OC(C)C)cc1C1CCNCC1 [ceritinib] | 1.14 |
| CS(=O)(=O)c1ccc(C(=O)Nc2ccc(Cl)c(-c3ccccn3)c2)c(Cl)c1 [vismodegib] | 1.61 |
| NC(=O)c1cccc2cn(-c3ccc([C@@H]4CCCNC4)cc3)nc12 [niraparib] | 1.95 |
| Cc1cc(Nc2ncnc3ccc(NC4=NC(C)(C)CO4)cc23)ccc1Oc1ccn2ncnc2c1 [tucatinib] | 1.6 |
| CCN(c1cc(C#CCN2CCOCC2)cc(C(=O)NCc2c(C)cc(C)[nH]c2=O)c1C)[C@H]1CC[C@H](N(C)CCOC)CC1 | 1.96 |

same assay, conditions: 0.00025 µM; days in culture: 346

| SMILES | CTG-3D luminescence at 96 h |
| --- | --- |
| NC1(C(=O)N[C@@H](CCO)c2ccc(Cl)cc2)CCN(c2nc[nH]c3nccc2-3)CC1 [capivasertib] | 1.36 |
| CC(C)n1nc(-c2ccc3oc(N)nc3c2)c2c(N)ncnc21 [sapanisertib] | 1.32 |
| O=C(c1ccc(F)c(F)c1Nc1ccc(I)cc1F)N1CC(O)([C@@H]2CCCCN2)C1 [cobimetinib] | 1.22 |
| C[C@H](NC(=O)CCC(F)(F)F)C(=O)N[C@@H]1C(=O)N(CCO)c2ncccc2-c2ccccc21 [crenigacestat] | 1.2 |
| Cc1cc(Nc2ncc(Cl)c(Nc3ccccc3S(=O)(=O)C(C)C)n2)c(OC(C)C)cc1C1CCNCC1 [ceritinib] | 1.27 |
| CS(=O)(=O)c1ccc(C(=O)Nc2ccc(Cl)c(-c3ccccn3)c2)c(Cl)c1 [vismodegib] | 1.38 |
| NC(=O)c1cccc2cn(-c3ccc([C@@H]4CCCNC4)cc3)nc12 [niraparib] | 1.24 |
| Cc1cc(Nc2ncnc3ccc(NC4=NC(C)(C)CO4)cc23)ccc1Oc1ccn2ncnc2c1 [tucatinib] | 1.22 |
| CCN(c1cc(C#CCN2CCOCC2)cc(C(=O)NCc2c(C)cc(C)[nH]c2=O)c1C)[C@H]1CC[C@H](N(C)CCOC)CC1 | 1.33 |

same assay, conditions: 0.00025 µM; days in culture: 364

| SMILES | CTG-3D luminescence at 96 h |
| --- | --- |
| NC1(C(=O)N[C@@H](CCO)c2ccc(Cl)cc2)CCN(c2nc[nH]c3nccc2-3)CC1 [capivasertib] | 1.21 |
| CC(C)n1nc(-c2ccc3oc(N)nc3c2)c2c(N)ncnc21 [sapanisertib] | 1.12 |
| O=C(c1ccc(F)c(F)c1Nc1ccc(I)cc1F)N1CC(O)([C@@H]2CCCCN2)C1 [cobimetinib] | 1.27 |
| C[C@H](NC(=O)CCC(F)(F)F)C(=O)N[C@@H]1C(=O)N(CCO)c2ncccc2-c2ccccc21 [crenigacestat] | 1.08 |
| Cc1cc(Nc2ncc(Cl)c(Nc3ccccc3S(=O)(=O)C(C)C)n2)c(OC(C)C)cc1C1CCNCC1 [ceritinib] | 1.11 |
| CS(=O)(=O)c1ccc(C(=O)Nc2ccc(Cl)c(-c3ccccn3)c2)c(Cl)c1 [vismodegib] | 1.26 |
| NC(=O)c1cccc2cn(-c3ccc([C@@H]4CCCNC4)cc3)nc12 [niraparib] | 1.28 |
| Cc1cc(Nc2ncnc3ccc(NC4=NC(C)(C)CO4)cc23)ccc1Oc1ccn2ncnc2c1 [tucatinib] | 1.19 |
| CCN(c1cc(C#CCN2CCOCC2)cc(C(=O)NCc2c(C)cc(C)[nH]c2=O)c1C)[C@H]1CC[C@H](N(C)CCOC)CC1 | 1.34 |

same assay, conditions: 0.005 µM; days in culture: 240

| SMILES | CTG-3D luminescence at 96 h |
| --- | --- |
| NC1(C(=O)N[C@@H](CCO)c2ccc(Cl)cc2)CCN(c2nc[nH]c3nccc2-3)CC1 [capivasertib] | 1.1 |
| CC(C)n1nc(-c2ccc3oc(N)nc3c2)c2c(N)ncnc21 [sapanisertib] | 0.588 |
| O=C(c1ccc(F)c(F)c1Nc1ccc(I)cc1F)N1CC(O)([C@@H]2CCCCN2)C1 [cobimetinib] | 1.09 |

— the supplement of paper PMC8882468
